Source: the supplement of paper PMC8612539
In brackets after ≈: the same amount, converted by molar mass.

Legend:
Enterococcus spp. = assay: minimum inhibitory concentration (MIC)
Procedure: (§1)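 Broth microdilution MIC (Sensititre BOPO7F bovine plate, CLSI methods) of 19 antimicrobials against field isolates of P. multocida, M. haemolytica, H. somni (deep nasopharyngeal swabs) and E. coli, Enterococcus spp. (rectal swabs) from weaned dairy heifers. Incubation 16-24 h at 35 C. MIC is the lowest concentration preventing visible growth. Values with <= or > lie at the tested range limits. Trimethoprim-sulfamethoxazole is given as the trimethoprim component of a 1:19 mixture.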

Mannheimia haemolytica = assay: minimum inhibitory concentration (MIC)
Procedure: as §1

CN(C)[C@@H]1C(O)=C(C(N)=O)C(=O)[C@@]2(O)C(O)=C3C(=O)c4c(O)cccc4[C@@](C)(O)[C@H]3C[C@@H]12 [Tetracycline]
Details | minimum inhibitory concentration [µg/mL]
Enterococcus spp., isolate (source animal id): 2 | 1 (≈ 2.25 µM)
Enterococcus spp., isolate (source animal id): 35 | > 8
Enterococcus spp., isolate (source animal id): 42 | > 8
Enterococcus spp., isolate (source animal id): 44 | > 8
Enterococcus spp., isolate (source animal id): 79 | > 8
Enterococcus spp., isolate (source animal id): 88 | 1 (≈ 2.25 µM)
Enterococcus spp., isolate (source animal id): 91 | 2 (≈ 4.5 µM)
Enterococcus spp., isolate (source animal id): 92 | ≤ 0.5
Enterococcus spp., isolate (source animal id): 111 | 1 (≈ 2.25 µM)
Enterococcus spp., isolate (source animal id): 122 | > 8
Enterococcus spp., isolate (source animal id): 123 | > 8
Enterococcus spp., isolate (source animal id): 133 | > 8
Enterococcus spp., isolate (source animal id): 158 | > 8
Enterococcus spp., isolate (source animal id): 168 | > 8
Enterococcus spp., isolate (source animal id): 169 | > 8
Enterococcus spp., isolate (source animal id): 171 | ≤ 0.5
Enterococcus spp., isolate (source animal id): 175 | > 8
Enterococcus spp., isolate (source animal id): 177 | > 8
Enterococcus spp., isolate (source animal id): 181 | > 8
Enterococcus spp., isolate (source animal id): 182 | > 8
Enterococcus spp., isolate (source animal id): 183 | > 8
Enterococcus spp., isolate (source animal id): 187 | > 8
Enterococcus spp., isolate (source animal id): 190 | > 8
Enterococcus spp., isolate (source animal id): 194 | ≤ 0.5
Enterococcus spp., isolate (source animal id): 195 | > 8
Enterococcus spp., isolate (source animal id): 197 | > 8
Enterococcus spp., isolate (source animal id): 211 | > 8
Enterococcus spp., isolate (source animal id): 214 | > 8
Enterococcus spp., isolate (source animal id): 222 | > 8
Enterococcus spp., isolate (source animal id): 223 | ≤ 0.5
Enterococcus spp., isolate (source animal id): 228 | > 8
Enterococcus spp., isolate (source animal id): 230 | > 8
Enterococcus spp., isolate (source animal id): 235 | > 8
Enterococcus spp., isolate (source animal id): 236 | ≤ 0.5
Enterococcus spp., isolate (source animal id): 239 | ≤ 0.5
Enterococcus spp., isolate (source animal id): 241 | > 8
Enterococcus spp., isolate (source animal id): 244 | ≤ 0.5
Enterococcus spp., isolate (source animal id): 246 | > 8
Enterococcus spp., isolate (source animal id): 247 | > 8
Enterococcus spp., isolate (source animal id): 250 | > 8
Enterococcus spp., isolate (source animal id): 252 | > 8
Enterococcus spp., isolate (source animal id): 268 | 1 (≈ 2.25 µM)
Enterococcus spp., isolate (source animal id): 282 | ≤ 0.5
Enterococcus spp., isolate (source animal id): 285 | ≤ 0.5
Enterococcus spp., isolate (source animal id): 289 | ≤ 0.5
Enterococcus spp., isolate (source animal id): 290 | ≤ 0.5
Enterococcus spp., isolate (source animal id): 296 | ≤ 0.5
Enterococcus spp., isolate (source animal id): 298 | > 8
Enterococcus spp., isolate (source animal id): 301 | ≤ 0.5
Enterococcus spp., isolate (source animal id): 310 | > 8
Enterococcus spp., isolate (source animal id): 320 | > 8
Enterococcus spp., isolate (source animal id): 331 | ≤ 0.5
Enterococcus spp., isolate (source animal id): 333 | ≤ 0.5
Enterococcus spp., isolate (source animal id): 341 | > 8
Mannheimia haemolytica, isolate (source animal id): 8 | > 8
Mannheimia haemolytica, isolate (source animal id): 13 | > 8
Mannheimia haemolytica, isolate (source animal id): 18 | > 8
Mannheimia haemolytica, isolate (source animal id): 21 | > 8
Mannheimia haemolytica, isolate (source animal id): 25 | 4 (≈ 9 µM)
Mannheimia haemolytica, isolate (source animal id): 27 | 8 (≈ 18 µM)
Mannheimia haemolytica, isolate (source animal id): 28 | 8 (≈ 18 µM)
Mannheimia haemolytica, isolate (source animal id): 30 | > 8
Mannheimia haemolytica, isolate (source animal id): 31 | > 8
Mannheimia haemolytica, isolate (source animal id): 32 | > 8
Mannheimia haemolytica, isolate (source animal id): 34 | 8 (≈ 18 µM)
Mannheimia haemolytica, isolate (source animal id): 36 | 8 (≈ 18 µM)
Mannheimia haemolytica, isolate (source animal id): 37 | 8 (≈ 18 µM)
Mannheimia haemolytica, isolate (source animal id): 40 | > 8
Mannheimia haemolytica, isolate (source animal id): 41 | 8 (≈ 18 µM)
Mannheimia haemolytica, isolate (source animal id): 43 | > 8
Mannheimia haemolytica, isolate (source animal id): 46 | 8 (≈ 18 µM)
Mannheimia haemolytica, isolate (source animal id): 49 | 4 (≈ 9 µM)
Mannheimia haemolytica, isolate (source animal id): 50 | 8 (≈ 18 µM)
Mannheimia haemolytica, isolate (source animal id): 51 | 8 (≈ 18 µM)
Mannheimia haemolytica, isolate (source animal id): 52 | > 8
Mannheimia haemolytica, isolate (source animal id): 53 | > 8
Mannheimia haemolytica, isolate (source animal id): 55 | > 8
